Measurements: ChEMBL document CHEMBL4190187, “Discovery of pyrazolopyrimidine derivatives as novel inhibitors of ataxia telangiectasia and rad3 related protein (ATR)” (Bioorg Med Chem Lett, 2017)

Legend:
[1] = biological target: High affinity nerve growth factor receptor (Homo sapiens) (UniProt P04629); assay: Inhibition of recombinant human TrkA (440 to end residues) at 1 uM using KKKSPGEYVNIEFG as substrate after 40 mins in presence of [gamma-33P]ATP by scintillation counting method
[2] = biological target: Serine/threonine-protein kinase 25 (Homo sapiens) (UniProt O00506); assay: Inhibition of recombinant human STK25 (1 to 308 residues) at 1 uM using RLGRDKYKTLRQIRQ as substrate after 40 mins in presence of [gamma-33P]ATP by scintillation counting method
[3] = biological target: LIM domain kinase 1 (Homo sapiens) (UniProt P53667); assay: Inhibition of recombinant human LIMK1 (285 to 638 residues) at 1 uM using cofilin as substrate after 40 mins in presence of [gamma-33P]ATP by scintillation counting method
[4] = biological target: Serine/threonine-protein kinase PAK 4 (Homo sapiens) (UniProt O96013); assay: Inhibition of recombinant human PAK4 (295 to end residues) at 1 uM using myelin basic protein as substrate after 40 mins in presence of [gamma-33P]ATP by scintillation counting method
[5] = biological target: G protein-coupled receptor kinase 3 (Homo sapiens) (UniProt P35626); assay: Inhibition of recombinant full-length human GRK3 at 1 uM using casein as substrate after 40 mins in presence of [gamma-33P]ATP by scintillation counting method
[6] = biological target: Serine/threonine-protein kinase ULK1 (Homo sapiens) (UniProt O75385); assay: Inhibition of recombinant human ULK1 (1 to 314 residues) at 1 uM using casein as substrate after 40 mins in presence of [gamma-33P]ATP by scintillation counting method
[7] = tested on: Fibroblast growth factor receptor 1 (Homo sapiens), P11362 [V561M]; assay: Inhibition of recombinant human FGFR1 V561M mutant (456 to 765 residues) at 1 uM using GGEEEEYFELVKKKK as substrate after 40 mins in presence of [gamma-33P]ATP by scintillation counting method
[8] = biological target: Dual specificity protein kinase CLK3 (Homo sapiens) (UniProt P49761); assay: Inhibition of recombinant full-length human CLK3 at 1 uM using ERMRPRKRQGSVRRRV as substrate after 40 mins in presence of [gamma-33P]ATP by scintillation counting method
[9] = biological target: Protein kinase C alpha type (Homo sapiens) (UniProt P17252); assay: Inhibition of recombinant full-length human PKCalpha at 1 uM using histone H1 as substrate after 40 mins in presence of [gamma-33P]ATP by scintillation counting method
[10] = biological target: Cyclin-dependent kinase 5/CDK5 activator 1 (Homo sapiens) (UniProt Q00535+Q15078); assay: Inhibition of recombinant full-length human CDK5/P25 at 1 uM using histone H1 as substrate after 40 mins in presence of [gamma-33P]ATP by scintillation counting method; assay type: protein-complex assay
[11] = biological target: Insulin receptor (Homo sapiens) (UniProt P06213); assay: Inhibition of recombinant human IR (1005 to 1310 residues) at 1 uM using KKSRGDYMTMQIG as substrate after 40 mins in presence of [gamma-33P]ATP by scintillation counting method
[12] = biological target: Serine/threonine-protein kinase MARK1 (Homo sapiens) (UniProt Q9P0L2); assay: Inhibition of recombinant human MARK1 (2 to end residues) at 1 uM using KKKVSRSGLYRSPSMPENLNRPR as substrate after 40 mins in presence of [gamma-33P]ATP by scintillation counting method
[13] = biological target: Testis-specific serine/threonine-protein kinase 1 (Homo sapiens) (UniProt Q9BXA7); assay: Inhibition of recombinant full-length human TSSK1 at 1 uM using KKKVSRSGLYRSPSMPENLNRPR as substrate after 40 mins in presence of [gamma-33P]ATP by scintillation counting method
[14] = biological target: Proto-oncogene tyrosine-protein kinase receptor Ret (Homo sapiens) (UniProt P07949); assay: Inhibition of recombinant human RET (658 to end residues) at 1 uM using KKKSPGEYVNIEFG as substrate after 40 mins in presence of [gamma-33P]ATP by scintillation counting method
[15] = tested on: Tyrosine-protein kinase ABL1 (Homo sapiens), P00519 [Q252H]; assay: Inhibition of recombinant human Abl Q252H mutant (27 to end residues) at 1 uM using EAIYAAPFAKKK as substrate after 40 mins in presence of [gamma-33P]ATP by scintillation counting method
[16] = biological target: Calcium/calmodulin-dependent protein kinase type IV (Homo sapiens) (UniProt Q16566); assay: Inhibition of recombinant full-length human CAMK4 at 1 uM using […] after 40 mins in presence of [gamma-33P]ATP by scintillation counting method
[17] = tested on: Epidermal growth factor receptor (Homo sapiens), P00533 [L858R,T790M]; assay: Inhibition of recombinant human EGFR T790M/L858R double mutant (696 to end residues) at 1 uM using GGMEDIYFEFMGGKKK as substrate after 40 mins in presence of [gamma-33P]ATP by scintillation counting method
[18] = biological target: Tyrosine-protein kinase JAK3 (Homo sapiens) (UniProt P52333); assay: Inhibition of recombinant human JAK3 (781 to end residues) at 1 uM using GGEEEEYFELVKKKK as substrate after 40 mins in presence of [gamma-33P]ATP by scintillation counting method
[19] = biological target: Myosin light chain kinase, smooth muscle (Homo sapiens) (UniProt Q15746); assay: Inhibition of recombinant human MLCK (1425 to 1771 residues) at 1 uM using […] after 40 mins in presence of [gamma-33P]ATP by scintillation counting method
[20] = biological target: Homeodomain-interacting protein kinase 2 (Homo sapiens) (UniProt Q9H2X6); assay: Inhibition of recombinant human HIPK2 (165 to 564 residues) at 1 uM using myelin basic protein as substrate after 40 mins in presence of [gamma-33P]ATP by scintillation counting method
[21] = biological target: STE20-like serine/threonine-protein kinase (Homo sapiens) (UniProt Q9H2G2); assay: Inhibition of recombinant human SLK (1 to 373 residues) at 1 uM using RLGRDKYKTLRQIRQ as substrate after 40 mins in presence of [gamma-33P]ATP by scintillation counting method
[22] = Metabolic stability in rat liver microsomes assessed as compound remaining at 1 uM in presence of NADPH as cofactor measured after 30 mins by LC-MS/MS method; assay type: ADME, microsome; conditions: read-out: Stability
[23] = biological target: PI3K p110 alpha/p85 alpha (Mus musculus) (UniProt P26450+P42337); assay: Inhibition of recombinant full-length mouse p110a H1047R mutant/p85a at 1 uM using phosphatidylinositol 4,5-bisphosphate as substrate after 40 mins in presence of [gamma-33P]ATP by scintillation counting method; assay type: protein-complex assay
[24] = biological target: Mitogen-activated protein kinase 10 (Homo sapiens) (UniProt P53779); assay: Inhibition of recombinant full-length human JNK3 at 1 uM using peptide as substrate after 40 mins in presence of [gamma-33P]ATP by scintillation counting method

Chain of Serine/threonine-protein kinase MARK1 (Homo sapiens) (Q9P0L2 whole entry, looked up): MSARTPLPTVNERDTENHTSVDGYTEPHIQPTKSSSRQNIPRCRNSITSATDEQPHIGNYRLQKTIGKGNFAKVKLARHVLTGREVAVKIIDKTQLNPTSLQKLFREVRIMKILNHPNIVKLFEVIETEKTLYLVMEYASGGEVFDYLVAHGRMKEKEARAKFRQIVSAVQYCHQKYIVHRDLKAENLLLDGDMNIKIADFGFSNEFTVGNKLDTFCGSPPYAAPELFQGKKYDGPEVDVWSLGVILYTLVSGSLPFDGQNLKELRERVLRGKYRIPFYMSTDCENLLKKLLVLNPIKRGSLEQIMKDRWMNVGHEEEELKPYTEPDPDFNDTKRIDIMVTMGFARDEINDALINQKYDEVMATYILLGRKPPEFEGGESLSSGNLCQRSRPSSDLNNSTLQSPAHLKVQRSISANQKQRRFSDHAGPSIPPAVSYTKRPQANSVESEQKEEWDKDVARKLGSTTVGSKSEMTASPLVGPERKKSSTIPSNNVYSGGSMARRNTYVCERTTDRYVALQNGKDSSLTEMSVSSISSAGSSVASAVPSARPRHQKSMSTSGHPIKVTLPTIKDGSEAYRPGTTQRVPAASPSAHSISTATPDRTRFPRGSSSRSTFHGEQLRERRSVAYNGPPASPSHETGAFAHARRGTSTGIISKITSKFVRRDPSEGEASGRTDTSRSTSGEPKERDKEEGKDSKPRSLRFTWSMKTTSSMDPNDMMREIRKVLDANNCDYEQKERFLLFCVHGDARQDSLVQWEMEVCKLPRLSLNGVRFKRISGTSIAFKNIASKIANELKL
Chain of Myosin light chain kinase, smooth muscle (Homo sapiens) (Q15746 whole entry, the tested form may be a part): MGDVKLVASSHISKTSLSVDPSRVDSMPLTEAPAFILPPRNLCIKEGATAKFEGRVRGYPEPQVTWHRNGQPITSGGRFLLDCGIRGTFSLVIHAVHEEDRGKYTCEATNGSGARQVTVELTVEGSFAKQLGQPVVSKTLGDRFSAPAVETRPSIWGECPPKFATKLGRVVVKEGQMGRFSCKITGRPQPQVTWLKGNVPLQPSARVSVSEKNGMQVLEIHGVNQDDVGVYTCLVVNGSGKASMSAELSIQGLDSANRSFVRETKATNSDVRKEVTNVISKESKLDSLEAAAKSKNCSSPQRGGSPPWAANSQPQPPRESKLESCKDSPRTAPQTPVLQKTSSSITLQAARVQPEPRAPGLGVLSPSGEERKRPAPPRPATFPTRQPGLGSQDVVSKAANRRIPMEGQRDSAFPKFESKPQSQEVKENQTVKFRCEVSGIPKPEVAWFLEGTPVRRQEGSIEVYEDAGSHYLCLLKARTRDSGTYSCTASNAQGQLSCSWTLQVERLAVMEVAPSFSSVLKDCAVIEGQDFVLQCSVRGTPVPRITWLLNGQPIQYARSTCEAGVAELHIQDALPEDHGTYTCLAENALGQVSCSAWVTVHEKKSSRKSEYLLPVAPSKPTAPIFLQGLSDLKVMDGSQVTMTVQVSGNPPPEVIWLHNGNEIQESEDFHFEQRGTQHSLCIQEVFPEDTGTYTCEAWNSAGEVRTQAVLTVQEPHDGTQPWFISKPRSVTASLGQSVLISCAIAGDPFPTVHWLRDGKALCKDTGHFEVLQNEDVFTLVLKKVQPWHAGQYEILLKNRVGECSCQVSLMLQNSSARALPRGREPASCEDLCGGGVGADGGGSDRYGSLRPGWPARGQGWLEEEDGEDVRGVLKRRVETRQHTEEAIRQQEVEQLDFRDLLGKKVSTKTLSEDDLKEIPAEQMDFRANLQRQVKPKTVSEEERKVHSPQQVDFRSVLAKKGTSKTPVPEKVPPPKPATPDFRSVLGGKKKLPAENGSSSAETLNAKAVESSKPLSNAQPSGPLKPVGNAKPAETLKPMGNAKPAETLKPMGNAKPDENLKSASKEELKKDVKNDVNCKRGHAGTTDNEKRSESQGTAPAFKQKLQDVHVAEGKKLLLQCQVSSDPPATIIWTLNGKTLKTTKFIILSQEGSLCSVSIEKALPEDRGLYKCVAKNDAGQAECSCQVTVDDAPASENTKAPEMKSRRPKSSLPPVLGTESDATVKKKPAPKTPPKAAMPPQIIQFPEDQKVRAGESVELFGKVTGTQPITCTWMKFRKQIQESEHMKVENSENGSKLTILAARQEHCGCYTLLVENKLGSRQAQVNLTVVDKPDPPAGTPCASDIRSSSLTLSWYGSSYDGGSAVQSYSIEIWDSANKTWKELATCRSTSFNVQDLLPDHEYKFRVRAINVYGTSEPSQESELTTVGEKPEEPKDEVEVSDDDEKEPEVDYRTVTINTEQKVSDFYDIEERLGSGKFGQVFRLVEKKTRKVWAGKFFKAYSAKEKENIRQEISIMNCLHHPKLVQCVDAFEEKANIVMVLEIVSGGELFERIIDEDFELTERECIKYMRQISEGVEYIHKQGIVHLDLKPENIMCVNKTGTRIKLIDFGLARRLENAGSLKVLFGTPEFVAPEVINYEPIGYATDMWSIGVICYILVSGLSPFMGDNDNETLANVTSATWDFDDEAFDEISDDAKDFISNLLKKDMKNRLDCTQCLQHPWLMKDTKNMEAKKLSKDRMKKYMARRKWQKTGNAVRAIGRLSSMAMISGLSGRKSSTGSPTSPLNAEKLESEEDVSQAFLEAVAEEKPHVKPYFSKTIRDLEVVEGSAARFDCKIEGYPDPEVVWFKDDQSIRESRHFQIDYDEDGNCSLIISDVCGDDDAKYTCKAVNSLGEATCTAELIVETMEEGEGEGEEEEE
Chain of Epidermal growth factor receptor (Homo sapiens), P00533 [L858R,T790M] (P00533 whole entry T790M/L858R, looked up): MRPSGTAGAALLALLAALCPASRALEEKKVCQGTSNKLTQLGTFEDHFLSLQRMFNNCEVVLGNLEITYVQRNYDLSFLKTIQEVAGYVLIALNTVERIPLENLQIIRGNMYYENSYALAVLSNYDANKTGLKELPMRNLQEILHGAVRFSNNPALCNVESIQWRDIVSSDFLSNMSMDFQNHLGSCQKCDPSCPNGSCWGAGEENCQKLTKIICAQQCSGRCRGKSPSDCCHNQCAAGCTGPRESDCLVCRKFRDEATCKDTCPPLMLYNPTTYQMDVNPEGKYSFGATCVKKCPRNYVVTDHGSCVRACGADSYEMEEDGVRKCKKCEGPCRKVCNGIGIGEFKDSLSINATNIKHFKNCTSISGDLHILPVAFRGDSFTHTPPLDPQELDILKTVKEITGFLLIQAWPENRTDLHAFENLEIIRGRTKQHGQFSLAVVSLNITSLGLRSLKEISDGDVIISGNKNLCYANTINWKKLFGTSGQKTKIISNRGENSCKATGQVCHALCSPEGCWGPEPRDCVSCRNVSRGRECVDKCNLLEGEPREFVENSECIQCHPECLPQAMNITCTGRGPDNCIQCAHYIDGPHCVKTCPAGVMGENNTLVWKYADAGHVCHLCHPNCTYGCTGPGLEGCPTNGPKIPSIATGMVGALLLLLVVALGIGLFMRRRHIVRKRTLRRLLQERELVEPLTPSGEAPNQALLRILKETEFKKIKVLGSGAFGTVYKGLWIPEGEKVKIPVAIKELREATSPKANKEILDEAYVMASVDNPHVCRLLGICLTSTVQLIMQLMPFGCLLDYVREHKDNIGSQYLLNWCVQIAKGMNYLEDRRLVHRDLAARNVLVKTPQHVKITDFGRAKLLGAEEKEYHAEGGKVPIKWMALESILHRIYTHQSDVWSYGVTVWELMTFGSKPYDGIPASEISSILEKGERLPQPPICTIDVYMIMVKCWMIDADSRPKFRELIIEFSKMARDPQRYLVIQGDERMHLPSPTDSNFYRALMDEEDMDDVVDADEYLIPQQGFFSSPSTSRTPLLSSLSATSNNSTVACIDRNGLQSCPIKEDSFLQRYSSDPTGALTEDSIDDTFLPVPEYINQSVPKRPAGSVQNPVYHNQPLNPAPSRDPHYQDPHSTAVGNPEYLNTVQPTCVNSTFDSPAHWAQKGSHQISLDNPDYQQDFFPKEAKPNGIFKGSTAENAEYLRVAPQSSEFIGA
Chain of High affinity nerve growth factor receptor (Homo sapiens) (P04629 33-796 limits assumed): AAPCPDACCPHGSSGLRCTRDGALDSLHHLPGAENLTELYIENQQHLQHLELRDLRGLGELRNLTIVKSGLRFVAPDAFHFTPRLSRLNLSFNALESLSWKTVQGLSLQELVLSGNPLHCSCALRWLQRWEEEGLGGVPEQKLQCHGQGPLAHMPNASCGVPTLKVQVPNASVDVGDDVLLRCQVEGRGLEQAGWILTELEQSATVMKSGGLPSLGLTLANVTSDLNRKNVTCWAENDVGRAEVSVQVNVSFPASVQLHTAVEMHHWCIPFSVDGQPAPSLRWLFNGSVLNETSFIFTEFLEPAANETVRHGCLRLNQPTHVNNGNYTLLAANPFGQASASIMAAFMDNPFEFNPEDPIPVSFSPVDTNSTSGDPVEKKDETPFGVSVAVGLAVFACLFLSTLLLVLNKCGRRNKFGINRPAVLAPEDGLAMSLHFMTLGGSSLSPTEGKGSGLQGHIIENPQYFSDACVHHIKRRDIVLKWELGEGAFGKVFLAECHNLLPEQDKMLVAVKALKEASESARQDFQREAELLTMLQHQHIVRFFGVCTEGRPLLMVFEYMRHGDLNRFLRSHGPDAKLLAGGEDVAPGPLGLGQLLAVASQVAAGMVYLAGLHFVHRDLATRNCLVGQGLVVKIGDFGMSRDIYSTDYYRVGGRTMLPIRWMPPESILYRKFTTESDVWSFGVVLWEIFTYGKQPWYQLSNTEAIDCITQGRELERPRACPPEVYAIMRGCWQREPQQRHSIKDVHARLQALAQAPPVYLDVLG
Chain of Serine/threonine-protein kinase 25 (Homo sapiens) (O00506 whole entry, looked up, the tested form may be a part): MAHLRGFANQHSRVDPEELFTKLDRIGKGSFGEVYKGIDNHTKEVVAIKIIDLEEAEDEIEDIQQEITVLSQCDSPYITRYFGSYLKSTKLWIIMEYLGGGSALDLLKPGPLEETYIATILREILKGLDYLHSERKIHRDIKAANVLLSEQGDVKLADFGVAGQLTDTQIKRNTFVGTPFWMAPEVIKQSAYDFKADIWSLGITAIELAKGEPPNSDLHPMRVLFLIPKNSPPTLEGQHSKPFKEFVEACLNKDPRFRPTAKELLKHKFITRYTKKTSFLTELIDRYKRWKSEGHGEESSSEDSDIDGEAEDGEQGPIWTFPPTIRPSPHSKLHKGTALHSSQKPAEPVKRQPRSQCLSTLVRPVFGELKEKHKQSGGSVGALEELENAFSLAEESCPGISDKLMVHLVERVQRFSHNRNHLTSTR

CS(=O)(=O)c1ccc(-n2nc(-c3cnc4[nH]ccc4c3)c3c(N)ncnc32)cc1
inhibition [1]: 2% | inhibition [2]: 45% | inhibition [3]: 24% | inhibition [4]: 45% | inhibition [5]: 1% | inhibition [6]: -1% | inhibition [7]: 12% | inhibition [8]: -1% | inhibition [9]: -1% | inhibition [10]: -1% | inhibition [11]: -7% | inhibition [12]: -7% | inhibition [13]: -8% | inhibition [14]: 95% | inhibition [15]: 70% | inhibition [16]: 8% | inhibition [17]: 27% | inhibition [18]: 4% | inhibition [19]: 4% | inhibition [20]: 3% | inhibition [21]: 7% | remaining at 0.5 h, 1 µM [22]: 63% | inhibition [23]: 14% | inhibition [24]: 8%
